In patent US10556854B2, “Bacterial efflux pump inhibitors” (RUTGERS, THE STATE UNIVERSITY OF NEW JERSEY, priority 2016, dated 2020):
Counter-ions that a name gives are not always drawn.

Columns and labels:
[1] = tested on: E. coli; assay: MIC-based assay for potentiation of antibiotics that are known efflux pump substrates (Test A), E. coli; assay type: cell-based; conditions: fold lowering of MIC of antibiotic (e.g., clarithromycin and levofloxacin) with EPI compound at 1.6 to 12.5 μg/mL; Escherichia coli ATCC 25922
Text: (§1) The ability of a compound disclosed herein to inhibit a bacterial efflux pump can be determined using a method like Test A or Test B as described in Example 13 and as shown in Table 1.
(§2) Test A. Minimum Inhibitory Concentration (MIC)-Based Assay for Potentiation of Antibiotics that are Known Efflux Pump Substrates:
(§3) MIC-based assays were used to evaluate the impact of potential efflux pump inhibiting (EPI) compounds on the MICs of antibiotics (e.g., clarithromycin and levofloxacin) known to be substrates for Gram-negative bacterial efflux pumps. The assays were conducted in accordance with Clinical and Laboratory Standards Institute (CLSI) guidelines for broth microdilution, with the modification that assays were conducted in the presence and absence of the test EPI compounds. When present, the EPI compounds were added to cation-adjusted Mueller-Hinton (CAMH) broth (Becton, Dickinson and Co., Franklin Lakes, N.J.) at a final concentration in the range of 1.6 to 12.5 μg/mL.
(§4) Log-phase Gram-negative bacteria were added to 96-well microtiter plates (at 5×10^5 colony forming units (CFU) per mL) containing two-fold serial dilutions of antibiotic in CAMH broth either in the absence or presence of the test EPI compounds. In all assays, each serial dilution of antibiotic was present in duplicate. The final volume in each well was 0.1 mL, and the microtiter plates were incubated aerobically for 24 hours at 37° C. Bacterial growth was then monitored by measuring the optical density (OD) at 600 nm using a VersaMax® plate reader (Molecular Devices, Inc., Sunnyvale, Calif.), with the MIC being defined as the lowest compound concentration at which growth was ≥90% inhibited compared to antibiotic-free control. The following Gram-negative bacterial strains were included in these assays: • Escherichia coli ATCC 25922 • Klebsiella pneumoniae ATCC 13883 and ATCC 10031 • Pseudomonas aeruginosa ATCC 27853. Test B. Fluorescence-Based Cellular Assay for Efflux Inhibition: […]

[2] = tested on: P. aeruginosa; assay: MIC-based assay for potentiation of antibiotics that are known efflux pump substrates (Test A), P. aeruginosa; assay type: cell-based; conditions: fold lowering of MIC of antibiotic (e.g., clarithromycin and levofloxacin) with EPI compound at 1.6 to 12.5 μg/mL; Pseudomonas aeruginosa ATCC 27853
Text: as §1, §2, §3, §4

Row | SMILES | Active in E. coli [1] | Active in P. aeruginosa [2]
1 | NCCC[C@H](N)CNC(CCc1ccccc1)CCc1ccccc1 [Example 1, (S)—N^1-(1,5-Diphenylpentan-3-yl)pentane-1,2,5-triamine 3 TFA] | ≥8x | <2x
2 | NC[C@@H](N)CCCNC(CCc1ccccc1)CCc1ccccc1 [Example 2, (S)—N^5-(1,5-diphenylpentan-3-yl)pentane-1,2,5-triamine 3 TFA] | ≥16x | ≥4x
3 | NCC[C@H](N)CNC(CCc1ccccc1)CCc1ccccc1 [Example 3, (S)—N^1-(1,5-diphenylpentan-3-yl)butane-1,2,4-triamine 3TFA] | ≥4x | ≥2x
4 | NC[C@@H](N)CCNC(CCc1ccccc1)CCc1ccccc1 [Example 4, (S)—N^4-(1,5-diphenylpentan-3-yl)butane-1,2,4-triamine 3 TFA] | ≥2x | ≥2x
5 | NCC[C@H](N)CCNC(CCc1ccccc1)CCc1ccccc1 [Example 5, (S)—N^1-(1,5-Diphenylpentan-3-yl)pentane-1,3,5-triamine 3 TFA] | ≥32x | ≥16x
6 | NCCC[C@H](N)CNCC(CCc1ccccc1)CCc1ccccc1 [Example 7, (S)—N^1-(2-phenethyl-4-phenylbutyl)pentane-1,2,5-triamine 3TFA] | ≥32x | ≥32x
7 | NC[C@@H](N)CCCNCC(CCc1ccccc1)CCc1ccccc1 [Example 8, (S)—N^5-(2-phenethyl-4-phenylbutyl)pentane-1,2,5-triaminium 2,2,2-trifluoroacetate] | ≥32x | ≥32x
8 | CC(C)C(N)CC[C@H](N)CNCC(CCc1ccccc1)CCc1ccccc1 (stereo partly shown) [Example 9] | ≥128x | <2x
9 | CC(C)C(N)CC[C@H](N)CNC(CCc1ccccc1)CCc1ccccc1.Cl.Cl.Cl (stereo partly drawn) [Example 10, (2S)—N^1-(1,5-diphenylpentan-3-yl)-6-methylheptane-1,2,5-triaminium chloride] | ≥256 x | <2x
10 | NCC(N)COC(CCc1ccccc1)CCc1ccccc1 (stereo not shown) [Example 11, 3-((1,5-diphenylpentan-3-yl)oxy)propane-1,2-diamine] | <2x | <2x
11 | NCC(N)COCC(CCc1ccccc1)CCc1ccccc1 (stereo not shown) [Example 12, 3-(2-phenethyl-4-phenylbutoxy)propane-1,2-diamine] | 8 x | <2x
